These results are taken from ChEMBL document CHEMBL1154896, “Antineoplastic agents. 573. isolation and structure of papilistatin from the papilionid butterfly Byasa polyeuctes termessa” (2010).

Usually MIC stands for the lowest concentration found to suppress growth. High values mean a need for much substance, low ones inhibition by little substance. The GI50 is the concentration giving 50% growth inhibition. Read a high GI50 as less potent growth inhibition.

Converted amounts (≈) assume the structure as drawn.

Holding throughout (assay type): functional
The test system of assay [1] is Staphylococcus aureus. The experiment in a line: Antibacterial activity against Staphylococcus aureus ATCC 29213.
For assay [2], the system named is Neisseria gonorrhoeae. Description: Antibacterial activity against Neisseria gonorrheae ATCC 49226.
Assay [3] deals with Enterococcus faecalis. The experiment in a line: Antibacterial activity against Enterococcus faecalis ATCC 29212.
In assay [4] the test system is Streptococcus pneumoniae. Description: Antibacterial activity against Streptococcus pneumoniae ATCC 6303.
The test system of assay [5] is Micrococcus luteus. Description: Antibacterial activity against Micrococcus luteus Presque Isle 456.
For assay [6], the system named is BXPC-3. The experiment in a line: Cytotoxicity against human BxPC3 cells after 48 hrs by SRB assay. Particulars: BXPC-3, 48 h. On the technique in general: In SRB staining, fixed cells bind dye roughly in proportion to their protein.
In assay [7] the test system is KM-20L2. Description: Cytotoxicity against human KM20L2 cells after 48 hrs by SRB assay. The conditions noted are these: KM-20L2, 48 h.

For `COc1cccc2c1cc(C(=O)O)c1c(C(=O)O)cc3c(c12)OCO3` [PAPILISTATIN], the minimum inhibitory concentration (MIC) was found to be 64 µg/mL (≈ 188 µM) in assay [1]; 8 µg/mL (≈ 23.5 µM) in assay [2]; 16 µg/mL (≈ 47 µM) in assay [3]; 32 µg/mL (≈ 94 µM) in assay [4]; 16 µg/mL (≈ 47 µM) in assay [5]. Further, the GI50 is 0.093 µg/mL (≈ 0.273 µM) in assay [6] and 0.096 µg/mL (≈ 0.282 µM) in assay [7].
